Source: PMC5906549, “Cathelicidin-Derived Antimicrobial Peptides Inhibit Zika Virus Through Direct Inactivation and Interferon Pathway” (Frontiers in Immunology, 2018)
Peptide text beside a SMILES is read from it.

Key:
ZIKV strain MR766 [1] = test: ZIKV RNA at 2-h post-infection in pre-treated human fetal astrocytes (early infection / entry); assay type: cell-based, Zika virus; conditions: astrocytes treated with AMPs 2 h at 37°C, then ZIKV MOI 0.5 for 2 h; normalized to 18-s rRNA; N = 3
Method: Total mRNA was isolated with TRIzol Reagent (Thermo Fisher Scientific) and RNeasy Mini Kit (QIAGEN Inc., Valencia, CA, USA) following the manufacturer’s recommendations. Two real-time RT-PCR methods were used for the current studies. First, SYBR Green-based RT-PCR assay was used to determine intracellular ZIKV RNA in Vero cells. For this assay, reverse transcription was performed using Verso cDNA synthesis Kit (Thermo Fisher Scientific) and 1 µg of total RNA in a 15-µL final volume. The RT-PCR analyses were performed using 7.5-µL SYBR Green PCR Master Mix (Thermo Fisher Scientific) with 0.5-µL cDNA, 1.5-µL H2O, 5.5-µL oligonucleotide primer pairs at 10 µM. […] Relative ZIKV RNA levels were determined and standardized with a GAPDH internal control using comparative ΔΔCT method ([35]). […] Relative ZIKV mRNA levels were determined and standardized with a GAPDH or 18-s rRNA endogenous control using comparative ΔΔCT method ([35]). All reference genes, including GAPDH, β-actin, and 18-s rRNA, detected identical changes of genes (Figure S1 in Supplementary Material). […] Quantitative genomic RNA from ZIKV (NR-1838DQ, ATCC) was used as a standard to calculate viral copies. […]
(A) Primary human fetal astrocytes were pre-incubated at 4°C for half an hour and then treated with antimicrobial peptides along with ZIKV infection at the MOI of 0.5 for 2 h. […] ZIKV RNA was determined through real-time RT-PCR.

ZIKV strain MR766 [2] = test: ZIKV virion levels in astrocyte supernatants, plaque-forming assay on Vero cells; assay type: cell-based, Zika virus; conditions: human fetal astrocytes; peptide 0.4 to 10 µM pre-treatment; supernatants titrated on Vero cells
Method: (A) Human fetal astrocytes were treated with doses of the selected peptides ranging from 1 to 50 µM. After 24 h, the cultures were washed and treated with same doses of peptides in fresh medium for another 24 h. Cell viability was determined by a colorimetric MTS assay. Results shown are the averages ±SD of experiments performed in triplicate. Data were analyzed by nonlinear regression and assessed the EC50 for each of the antimicrobial peptides. (B–E) Astrocytes were treated with doses of antimicrobial peptides ranging from 0.4 to 10 µM for 2 h then infected with ZIKV at the MOI of 0.5. After 24 h, the cultures were washed and treated with same doses of antimicrobial peptides in fresh medium for another 24 h. At the experimental endpoint, intracellular ZIKV RNA (B) was determined through real-time RT-PCR in total cellular RNA. Data were normalized to GAPDH and presented as fold change (in log scale) compared with ZIKV group. Extracellular ZIKV RNA [(C), in log scale] was determined through real-time RT-PCR using total RNA isolated from cell-free supernatants. ZIKV virion levels (in log scale) were determined by adding cell-free culture supernatants to Vero cells and overlaid with Agar gel in viral PFA (D). Viral plaques were manually counted and calculated as PFU/mL (E). * p < 0.05, ** p < 0.01, and *** p < 0.001, as compared with the ZIKV group without peptide treatment (ANOVA, N = 3).

| SMILES | ZIKV RNA at 2-h post-infection compared with untreated ZIKV group (ZIKV strain MR766 [1]) | ZIKV virions (PFU/mL) in supernatants (ZIKV strain MR766 [2]) |
| --- | --- | --- |
| CC[C@H](C)[C@H](NC(=O)[C@H](CCCCN)NC(=O)[C@H](CCCCN)NC(=O)[C@H](Cc1ccccc1)NC(=O)[C@H](CC(C)C)NC(=O)[C@H](CCCCN)NC(=O)[C@H](CCCCN)NC(=O)[C@H](Cc1ccccc1)NC(=O)[C@H](CCCCN)NC(=O)[C@H](CCCCN)NC(=O)[C@H](CCCNC(=N)N)NC(=O)[C@H](Cc1ccccc1)NC(=O)[C@H](CCCNC(=N)N)NC(=O)[C@H](CCCCN)NC(=O)[C@H](Cc1ccccc1)NC(=O)[C@H](CCCNC(=N)N)NC(=O)CN)C(=O)N[C@@H](CO)C(=O)O [BMAP-18] (H-GRFKRFRKKFKKLFKKIS-OH; N-terminus and C-terminus assumed) | significantly decreased ZIKV RNA | ZIKV virions were reduced |
| CC[C@H](C)[C@H](NC(=O)[C@H](CCCNC(=N)N)NC(=O)[C@H](CCC(N)=O)NC(=O)[C@@H](NC(=O)[C@@H](NC(=O)[C@H](CCCNC(=N)N)NC(=O)[C@H](CCCCN)NC(=O)[C@H](Cc1ccccc1)NC(=O)CN)[C@@H](C)CC)C(C)C)C(=O)N[C@@H](CCCCN)C(=O)N[C@@H](CC(=O)O)C(=O)N[C@@H](Cc1ccccc1)C(=O)N[C@@H](CC(C)C)C(=O)N[C@@H](CCCNC(=N)N)C(=O)N[C@@H](CC(N)=O)C(=O)N[C@@H](CC(C)C)C(=O)N[C@H](C(N)=O)C(C)C [GF-17] (H-GFKRIVQRIKDFLRNLV-NH2; N-terminus and C-terminus assumed) | significantly decreased ZIKV RNA | ZIKV virions were reduced |
